In patent publication US9296698B2, “Amino heteroaryl compounds as beta-secretase modulators and methods of use” (Amgen Inc., priority 2009, dated 2016) one finds IC50 data, which are given here for 34 compounds.

Assay [1] has as its target BACE 1 (Beta Secretase enzyme) (Homo sapiens, UniProt P56817). The assay is described as follows: In vitro enzymatic BACE FRET assay. The assay is classed as biochemical. Conditions: IC50 range symbols, Table 1; read-out: BACE 1 FRET assay. Here is the method:
In Vitro Enzymatic BACE FRET (Fluorescence Resonance Energy Transfer) Assay (Enzyme Assay Data in Table 1)
The assay buffer used in this screen is 0.05 M acetate, pH 4.2, 10% DMSO final, 100 uM genapol (which is a nonionic detergent, below its Critical Micelle Concentration). […] The assay is effectively started by the addition of FRET substrate (50 nM) and the combination is incubated for one hour. The FRET assay is terminated with by addition of Tris buffer, which raises the pH to neutrality, and the fluorescence is determined. The FRET substrate is a peptide with commercially available fluorophore and quencher, on opposite sides of the BACE cleavage site.

The subject of assay [2] is Aβ40 in conditioned medium of cells stably expressing Amyloid Precursor Protein (APP). The assay is described as follows: In vitro BACE cell-based assay (HEK cell assay), Aβ40 sandwich ELISA. Conditions: IC50 range symbols, Table 1, Aβ40, 24 h incubation, read-out: HEK cell assay. As for the experimental part:
In Vitro BACE Cell-Based Assay:
The cell-based assay measures inhibition or reduction of Aβ40 in conditioned medium of test compound treated cells expressing amyloid precursor protein.
Cells stably expressing Amyloid Precursor Protein (APP) were plated at a density of 40K cells/well in 96 well plates (Costar). The cells were cultivated for 24 hours at 37° C. and 5% CO2 in DMEM supplemented with 10% FBS. The test compounds were then added to cells in 10-point dose response concentrations with the starting concentration being either 100 μM or 10 μM. The compounds were diluted from stock solutions in DMSO and the final DMSO concentration of the test compounds on cells was 0.1%. After 24 h of incubation with the test compounds the supernatant conditioned media was collected and the Aβ 40 levels were determined using a sandwich ELISA. The IC50 of the compound was calculated from the percent of control or percent inhibition of Aβ 40 as a function of the concentration of the test compound.
The sandwich ELISA to detect Aβ 40 was performed in 96 well microtiter plates, which were pre-treated with goat anti-rabbit IgG (Pierce). The capture and detecting antibody pair that were used to detect Aβ 40 from cell supernatants were affinity purified pAb40 (Biosource) and biotinylated 6E10 (Signet Labs Inc.), respectively. The optimal concentration for the pAb40 antibody was 3 μg/ml in Superblock/TBS (Pierce) that was supplemented with 0.05% Tween 20 (Sigma).
Cellular supernatants were incubated with the capture antibody for 3 h at 4° C., followed by 3 wash steps in TBS-tween (0.05%). The detecting antibody incubation was for 2 h at 4° C., again followed by the wash steps as described previously. The final readout of the ELISA is Time-Resolved Fluorescence (counts per minute) using Delfia reagents Streptavidin-Europium and Enhancement solutions (Perkin Elmer) and the Victor 2 multilabel counter (Perkin Elmer).

Where two headings read alike, the source gives them in different places.

Sequence of BACE 1 (Beta Secretase enzyme) (P56817 46-501, species assumed): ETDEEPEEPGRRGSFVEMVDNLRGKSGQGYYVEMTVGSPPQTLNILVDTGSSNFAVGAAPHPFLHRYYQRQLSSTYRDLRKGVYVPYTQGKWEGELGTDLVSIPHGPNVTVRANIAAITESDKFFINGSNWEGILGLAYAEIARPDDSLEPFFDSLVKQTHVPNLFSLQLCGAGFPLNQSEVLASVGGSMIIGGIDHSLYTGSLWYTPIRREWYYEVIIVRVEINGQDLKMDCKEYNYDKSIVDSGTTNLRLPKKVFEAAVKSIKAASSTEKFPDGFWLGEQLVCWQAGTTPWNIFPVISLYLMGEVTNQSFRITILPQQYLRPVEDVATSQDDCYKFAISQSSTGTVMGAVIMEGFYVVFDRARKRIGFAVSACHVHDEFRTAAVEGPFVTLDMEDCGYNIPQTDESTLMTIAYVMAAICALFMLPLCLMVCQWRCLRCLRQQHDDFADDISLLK

On to “3-(2-amino-6-(2-((2-methoxyphenyl)carbonyl)phenyl)-3-quinolinyl)-N-(2,2-dimethyltetrahydro-2H-pyran-4-yl)-2-methylpropanamide [Example 146]”, for which the IC50 in assay [1] and in assay [2] was below 0.5 µM each time.

With “3-(2-amino-6-(2-methyl-6-(1-pyrrolidinylcarbonyl)phenyl)-3-quinolinyl)-N-(2,2-dimethyltetrahydro-2H-pyran-4-yl)-2-methylpropanamide [Example 145]”, the IC50 in assay [1] and in assay [2] was below 0.5 µM in each case.

For the compound “3-(2-amino-6-o-tolylquinolin-3-yl)-N-(tetrahydro-2H-pyran-4-yl)propanamide [Example 16]”, the IC50 in assay [1] and in assay [2] was 1 to 5 µM each time.

For the compound “3-(3-amino-7-o-tolylnaphthalen-2-yl)-2-methyl-N-(pyridin-3-ylmethyl)propanamide [Example 69]”, the IC50 in assay [1] is below 0.5 µM; in assay [2], 0.5 to 1 µM.

Regarding “3-(3-amino-7-o-tolylnaphthalen-2-yl)-N-(1-(2-methoxyphenyl)ethyl)-2-methylpropanamide [Example 70]”, the IC50 in assay [1] was below 0.5 µM; in assay [2], 1 to 5 µM.

Turning to “3-(3-amino-7-o-tolylnaphthalen-2-yl)-N-(1-(pyridin-2-yl)ethyl)propanamide [Example 56]”, the IC50 in assay [1] was below 0.5 µM; in assay [2] it was 1 to 5 µM.

On to “3-(3-amino-7-o-tolylnaphthalen-2-yl)-N-(1-phenylethyl)propanamide [Example 30]”, for which the IC50 in assay [1] is below 0.5 µM; in assay [2], 1 to 5 µM.

As for “3-(3-amino-7-o-tolylnaphthalen-2-yl)-N-(2,3-dihydro-1H-inden-1-yl)propanamide [Example 57]”, the values for the IC50 in assay [1] and in assay [2] were below 0.5 µM and 1 to 5 µM, respectively.

As for “3-(3-amino-7-o-tolylnaphthalen-2-yl)-N-(2-fluorophenyl)propanamide [Example 28]”, the IC50 in assay [1] fell in the range of 0.5 to 1 µM; in assay [2], 1 to 5 µM.

Regarding “3-(3-amino-7-o-tolylnaphthalen-2-yl)-N-(2-methoxy-2-methylpropyl)propanamide [Example 29]”, the figures for the IC50 in assay [1] and in assay [2] were 0.5 to 1 µM and 1 to 5 µM, respectively.

As to “3-(3-amino-7-o-tolylnaphthalen-2-yl)-N-(2-methoxybutyl)propanamide [Example 26]”, the values for the IC50 in assay [1] and in assay [2] were below 0.5 µM and 1 to 5 µM, respectively.

As to “3-(3-amino-7-o-tolylnaphthalen-2-yl)-N-(6,7-dihydro-5H-cyclopenta[b]pyridin-7-yl)-2-methylpropanamide [Example 73]”, the values for the IC50 in assay [1] and in assay [2] were below 0.5 µM and 1 to 5 µM, respectively.

For the compound “3-(3-amino-7-o-tolylnaphthalen-2-yl)-N-((R)-1-(2-fluorophenyl)ethyl)propanamide [Example 55]”, the IC50 was below 0.5 µM in assay [1] and 1 to 5 µM in assay [2].

In the case of “3-(3-amino-7-o-tolylnaphthalen-2-yl)-N-((R)-1-cyclohexylethyl)propanamide [Example 31]”, the IC50 in assay [1] was below 0.5 µM; in assay [2], above 5 µM.

On to “3-(3-amino-7-o-tolylnaphthalen-2-yl)-N-((S)-1-cyclohexylethyl)propanamide [Example 35]”, for which the IC50 was below 0.5 µM in assay [1] and above 5 µM in assay [2].

“3-(3-amino-7-o-tolylnaphthalen-2-yl)-N-(pyridin-2-ylmethyl)propanamide [Example 36]”: the IC50 in assay [1] was below 0.5 µM; in assay [2], 1 to 5 µM.

As for “3-(3-amino-7-o-tolylnaphthalen-2-yl)-N-(pyridin-3-ylmethyl)propanamide [Example 37]”, the figures for the IC50 in assay [1] and in assay [2] were below 0.5 µM and 1 to 5 µM, respectively.

Take “3-(6-(3-chloropyridin-2-yl)quinolin-3-yl)-N-((4,4-difluorocyclohexyl)methyl)-2-methylpropanamide [Example 99]”: the IC50 in assay [1] was below 0.5 µM; in assay [2], 1 to 5 µM.

In the case of `Cc1ccccc1-c1ccc2nc(N)c(CCC(=O)N(C)C3CCCCC3)cc2c1` [Example 1, 3-(2-amino-6-o-tolylquinolin-3-yl)-N-cyclohexyl-N-methylpropanamide], the IC50 in assay [2] (Homo sapiens, HEK293, 24 h) was below 0.5 µM.

As for `Cc1cccnc1-c1ccc2nc(N)c(CC(C)C(=O)NCCC(C)(C)C)cc2c1` (stereo not shown) [Example 5, 3-(2-amino-6-(3-methylpyridin-2-yl)quinolin-3-yl)-N-(3,3-dimethylbutyl)-2-methylpropanamide], the IC50 in assay [2] (Homo sapiens, HEK293, 24 h) fell in the range of 0.5 to 1 µM.

As for `Cc1ccccc1-c1ccc2nc(N)c(CCC(=O)NC3CCCCC3)cc2c1` [Example 13, 3-(2-amino-6-o-tolylquinolin-3-yl)-N-cyclohexylpropanamide], the IC50 in assay [2] (Homo sapiens, HEK293, 24 h) fell in the range of 0.5 to 1 µM.

For the compound `Cc1ccccc1-c1ccc2nc(N)c(CCC(=O)NCC3CCCCC3)cc2c1` [Example 14, 3-(2-amino-6-o-tolylquinolin-3-yl)-N-(cyclohexylmethyl)propanamide], the IC50 in assay [2] (Homo sapiens, HEK293, 24 h) lay in the range of 0.5 to 1 µM.

`Cc1ccccc1-c1ccc2nc(N)c(CC(C)C(=O)NCC3CCCCC3)cc2c1` (stereo not shown) [Example 22, 3-(2-amino-6-o-tolylquinolin-3-yl)-N-(cyclohexylmethyl)-2-methylpropanamide]: the IC50 in assay [2] (Homo sapiens, HEK293, 24 h) was below 0.5 µM.

As to `Cc1ccccc1-c1ccc2nc(N)c(CC(C)C(=O)NCc3ccccc3)cc2c1` (stereo not shown) [Example 52, 3-(2-amino-6-o-tolylquinolin-3-yl)-N-benzyl-2-methylpropanamide], the IC50 in assay [2] (Homo sapiens, HEK293, 24 h) lay in the range of 1 to 5 µM.

For the compound `CCC(Cc1cc2cc(-c3ccccc3C)ccc2nc1N)C(=O)NCC1CCCCC1` (stereo not shown) [Example 60, 2-((2-amino-6-o-tolylquinolin-3-yl)methyl)-N-(cyclohexylmethyl)butanamide], in assay [2] (Homo sapiens, HEK293, 24 h), the IC50 was above 5 µM.

`Cc1ccccc1-c1ccc2nc(N)c(CC(C(=O)NCC3CCCCC3)C(C)C)cc2c1` (stereo not shown) [Example 66, 2-((2-amino-6-o-tolylquinolin-3-yl)methyl)-N-(cyclohexylmethyl)-3-methylbutanamide]: the IC50 in assay [2] (Homo sapiens, HEK293, 24 h) is 1 to 5 µM.

With `Cc1ccccc1-c1ccc2nc(N)c(C[C@@H](C)C(=O)NCc3cnccn3)cc2c1` [Example 80, (R)-3-(2-amino-6-o-tolylquinolin-3-yl)-2-methyl-N-(pyrazin-2-ylmethyl)propanamide], the IC50 in assay [2] (Homo sapiens, HEK293, 24 h) was below 0.5 µM.

Turning to `Cc1ccccc1-c1ccc2nc(N)c(C[C@@H](C)C(=O)NCC3CCOCC3)cc2c1` [Example 87, (R)-3-(2-amino-6-o-tolylquinolin-3-yl)-2-methyl-N-((tetrahydro-2H-pyran-4-yl)methyl)propanamide], in assay [2] (Homo sapiens, HEK293, 24 h), the IC50 is below 0.5 µM.

`Cc1ccccc1-c1ccc2nc(N)c(CC(C)C(=O)NCCC(C)(C)C)cc2c1` (stereo not shown) [Example 90, 3-(2-amino-6-o-tolylquinolin-3-yl)-N-(3,3-dimethylbutyl)-2-methylpropanamide]: the IC50 in assay [2] (Homo sapiens, HEK293, 24 h) is below 0.5 µM.

Turning to `Cc1ccccc1-c1ccc2nc(N)c(CC(C)C(=O)NCc3cncs3)cc2c1` (stereo not shown) [Example 93, 3-(2-amino-6-o-tolylquinolin-3-yl)-2-methyl-N-(thiazol-5-ylmethyl)propanamide], the IC50 in assay [2] (Homo sapiens, HEK293, 24 h) is below 0.5 µM.

In the case of `Cc1cccnc1-c1ccc2nc(N)c(C[C@@H](C)C(=O)NCCC(C)(C)C)cc2c1` [Example 126, (R)-3-(2-amino-6-(3-methylpyridin-2-yl)quinolin-3-yl)-N-(3,3-dimethylbutyl)-2-methylpropanamide], the IC50 in assay [2] (Homo sapiens, HEK293, 24 h) is below 0.5 µM.

As for `C[C@H](Cc1cc2cc(-c3ncccc3Cl)ccc2nc1N)C(=O)NCCC(C)(C)C` [Example 128, (R)-3-(2-amino-6-(3-chloropyridin-2-yl)quinolin-3-yl)-N-(3,3-dimethylbutyl)-2-methylpropanamide], the IC50 in assay [2] (Homo sapiens, HEK293, 24 h) is below 0.5 µM.

In the case of `CC(=O)c1ccccc1-c1ccc2nc(N)c(CC(C)C(=O)NCCC(C)(C)C)cc2c1` (stereo not shown) [Example 156, 3-(6-(2-acetylphenyl)-2-aminoquinolin-3-yl)-N-(3,3-dimethylbutyl)-2-methylpropanamide], the IC50 in assay [2] (Homo sapiens, HEK293, 24 h) was below 0.5 µM.

Regarding `Cc1ccccc1-c1ccc2nc(N)c(C[C@@H](C)C(=O)NC3CCOC(C)(C)C3)cc2c1` (stereo partly drawn) [Example 164, (2R)-3-(2-amino-6-o-tolylquinolin-3-yl)-N-(2,2-dimethyltetrahydro-2H-pyran-4-yl)-2-methylpropanamide], in assay [2] (Homo sapiens, HEK293, 24 h), the IC50 is below 0.5 µM.
